Where two headings read alike, the source gives them in different places.
Test system: M. mycetomatis genome strain MM55
Experiment: CLSI M38-A2 based in vitro susceptibility screening (XTT or resazurin), growth at fixed concentration
Assay type: cell-based, Madurella mycetomatis
Conditions: Madurella mycetomatis; for Percent fungal survival at 100 µM: read-out: Percentage survival at 100um, 100 uM A (second replicate column)
[1] = mean of three replicates, read-out: Percentage survival at 25um, 25 uM mean
[2] = replicate A, read-out: Percentage survival at 25um, 25 um A
[3] = replicate B, read-out: Percentage survival at 25um, 25 uM B
[4] = replicate C, read-out: Percentage survival at 25um, 25 uM C
[5] = mean of three replicates, read-out: Percentage survival at 100um, 100 uM mean
[6] = replicate 1, read-out: Percentage survival at 100um, 100 uM A (first replicate column)
[7] = replicate 3, read-out: Percentage survival at 100um, 100 uM A (third replicate column)
[8] = mean of replicates, read-out: Percentage survival at 25um, 25 uM mean
[9] = mean of replicates, read-out: Percentage survival at 100um, 100 uM mean
[10] = replicate 1, read-out: Percentage survival at 100um, 100 uM A
[11] = replicate 2, read-out: Percentage survival at 100um, 100 uM A
[12] = replicate 3, read-out: Percentage survival at 100um, 100 uM A
[13] = first replicate column, read-out: Percentage survival at 100um, 100 uM A
[14] = second replicate column, read-out: Percentage survival at 100um, 100 uM A
[15] = third replicate column, read-out: Percentage survival at 100um, 100 uM A
[16] = mean of replicates, MM55, read-out: Percentage survival at 25um, 25 uM mean
[17] = replicate A, MM55, read-out: Percentage survival at 25um, 25 um A
[18] = replicate B, MM55, read-out: Percentage survival at 25um, 25 uM B
[19] = replicate C, MM55, read-out: Percentage survival at 25um, 25 uM C
[20] = mean of replicates, MM55, read-out: Percentage survival at 100um, 100 uM mean
[21] = replicate 1, MM55, read-out: Percentage survival at 100um, 100 uM A
[22] = replicate 2, MM55, read-out: Percentage survival at 100um, 100 uM A
[23] = replicate 3, MM55, read-out: Percentage survival at 100um, 100 uM A
[24] = mean, read-out: Percentage survival at 25um, 25 uM mean
[25] = mean, read-out: Percentage survival at 100um, 100 uM mean
[26] = replicate (first column), read-out: Percentage survival at 100um, 100 uM A
[27] = replicate (second column), read-out: Percentage survival at 100um, 100 uM A
[28] = replicate (third column), read-out: Percentage survival at 100um, 100 uM A

Structure (SMILES)	activity at 25 µM [1] [%]	activity at 25 µM [2] [%]	activity at 25 µM [3] [%]	activity at 25 µM [4] [%]	activity at 100 µM [5] [%]	activity at 100 µM [6] [%]	Percent fungal survival at 100 µM (replicate 2) [%]	activity at 100 µM [7] [%]	further results
COc1cc2c(O)c3c(c(-c4ccc5c(c4)OCO5)c2cc1OC)C(=O)OC3 [MMV102270]	80.6	79.5	84.8	77.5	107	93.7	74.4	153	–
O=C(Nc1nnc(-c2ccc(Cl)cc2)o1)c1nc2ccccc2s1 [MMV102833]	111	134	137	62.9	73.2	81.5	66.4	71.7	–
CC(C)Nc1ncnc2c1cnn2-c1ccc(Cl)cc1 [MMV108465]	–	53.4	64.9	71.1	–	–	–	–	activity at 25 µM [8]: 63.1%; activity at 100 µM [9]: 22.2%; activity at 100 µM [10]: 0.471%; activity at 100 µM [11]: 1.77%; activity at 100 µM [12]: 64.4%
CCOc1ccc(C(=O)NCCc2ccccc2)cc1 [MMV124656]	89.4	88.1	108	71.9	57.6	63.4	48.9	60.4	–
Clc1cccc(-c2nnc(-c3ccccc3)o2)c1 [MMV141011]	–	78.3	72.5	50.5	–	–	–	–	activity at 25 µM [8]: 67.1%; activity at 100 µM [9]: 67.1%; activity at 100 µM [10]: 58.8%; activity at 100 µM [11]: 65.1%; activity at 100 µM [12]: 77.6%
NC1C2CC3CC(C2)CC1C3 (centres unmarked) [MMV180402]	83.1	84.6	88.7	76	78	–	–	–	activity at 100 µM [13]: 78.9%; activity at 100 µM [14]: 67.8%; activity at 100 µM [15]: 87.1%
O=C(CC1Sc2ncnn2C1=O)Nc1ccc(Br)cc1 (centres unmarked) [MMV214956]	63.2	56.2	60	73.5	-1.13	-7.27	-0.0182	3.91	–
O=C(O)CSc1cc(NS(=O)(=O)c2cccc3cccnc23)c2ccccc2c1O [MMV218827]	–	–	–	–	–	–	–	–	activity at 25 µM [16]: 91.4%; activity at 25 µM [17]: 90.9%; activity at 25 µM [18]: 95.2%; activity at 25 µM [19]: 88.2%; activity at 100 µM [20]: 89.8%; activity at 100 µM [21]: 82.4%; activity at 100 µM [22]: 84.7%; activity at 100 µM [23]: 102%
O=C(O)c1cc(-c2ccc(Br)cc2)nc2ccc(Cl)cc12 [MMV247764]	–	–	–	–	–	–	–	–	activity at 25 µM [16]: 73.4%; activity at 25 µM [17]: 82.6%; activity at 25 µM [18]: 78.8%; activity at 25 µM [19]: 58.9%; activity at 100 µM [20]: 54.4%; activity at 100 µM [21]: 60.9%; activity at 100 µM [22]: 52.4%; activity at 100 µM [23]: 49.8%
O=S(=O)(Nc1ccc(O)cc1)c1cccc2cccnc12 [MMV251679]	86.4	84.9	92.9	81.3	91.6	–	–	–	activity at 100 µM [13]: 98.4%; activity at 100 µM [14]: 87.2%; activity at 100 µM [15]: 89.3%
CCN1CCN(Cc2nc3ccc([N+](=O)[O-])cc3c(=O)n2-c2ccccc2F)CC1 [MMV275100]	–	–	–	–	–	–	–	–	activity at 25 µM [16]: 81.2%; activity at 25 µM [17]: 83%; activity at 25 µM [18]: 93.5%; activity at 25 µM [19]: 67.1%; activity at 100 µM [20]: 72.6%; activity at 100 µM [21]: 70.7%; activity at 100 µM [22]: 69.8%; activity at 100 µM [23]: 77.1%
Oc1ccc2[nH]c(-c3ccccc3)nc2c1 [MMV292173]	–	82.5	95.1	92	–	–	–	–	activity at 25 µM [8]: 89.9%; activity at 100 µM [9]: 93.2%; activity at 100 µM [10]: 100%; activity at 100 µM [11]: 85.4%; activity at 100 µM [12]: 94.1%
COc1ccc(CNC(=O)C(NS(=O)(=O)c2ccc3nc(C)sc3c2)C(C)C)cc1 (centres unmarked) [MMV303733]	91.8	74.6	73.6	127	75.7	82.2	77.4	67.5	–
COc1ccc(NC(=O)c2cc3ccccn3n2)cc1 [MMV374187]	100	94.6	115	90.7	65.8	52	60.6	84.9	–
Oc1cc(-c2cccc3ccccc23)[nH]n1 [MMV422940]	–	89.3	79.4	70.9	–	–	–	–	activity at 25 µM [24]: 79.9%; activity at 100 µM [25]: 81.4%; activity at 100 µM [26]: 88.2%; activity at 100 µM [27]: 73.6%; activity at 100 µM [28]: 82.2%
O=C(O)C(Cc1c[nH]c2ccccc12)N1C(=O)c2ccccc2C1=O (centres unmarked) [MMV452821]	80.9	99.3	91	52.5	96.8	102	95.7	92.9	–
NC(=O)c1ccccc1NC(=O)c1ccc(C(=O)Nc2ccccc2C(N)=O)cc1 [MMV508427]	–	–	–	–	–	–	–	–	activity at 25 µM (mean of three, M. mycetomatis MM55, read-out: Percentage survival at 25um, 25 uM mean): 86.7%; activity at 25 µM (replicate A, M. mycetomatis MM55, read-out: Percentage survival at 25um, 25 um A): 92%; activity at 25 µM (replicate B, M. mycetomatis MM55, read-out: Percentage survival at 25um, 25 uM B): 87.7%; activity at 25 µM (replicate C, M. mycetomatis MM55, read-out: Percentage survival at 25um, 25 uM C): 80.3%; activity at 100 µM (mean of three, M. mycetomatis MM55, read-out: Percentage survival at 100um, 100 uM mean): 95.7%; activity at 100 µM (replicate 1, M. mycetomatis MM55, read-out: Percentage survival at 100um, 100 uM A (first replicate column)): 98.6%; Percent fungal survival at 100 µM (replicate 2, M. mycetomatis MM55): 92.7%; activity at 100 µM (replicate 3, M. mycetomatis MM55, read-out: Percentage survival at 100um, 100 uM A (third replicate column)): 95.8%
O=C(c1cc(O)nc2ccccc12)N1CCN(c2ccccc2)CC1 [MMV596723]	81.5	85.3	92.8	66.3	79.5	–	–	–	activity at 100 µM [13]: 83.7%; activity at 100 µM [14]: 80.5%; activity at 100 µM [15]: 74.4%
COc1ccc(-n2cnc3cc(NCc4ccco4)ccc32)cc1 [MMV617332]	61.8	70.4	107	7.47	7.71	–	–	–	activity at 100 µM [13]: 18.3%; activity at 100 µM [14]: 3.66%; activity at 100 µM [15]: 1.23%
CN(Cc1ccc(C(C)(C)C)cc1)Cc1cccc2ccccc12 [MMV637104]	–	58.2	-0.523	64.9	–	–	–	–	activity at 25 µM [24]: 40.9%; activity at 100 µM [25]: 61.2%; activity at 100 µM [26]: 61.4%; activity at 100 µM [27]: 65.7%; activity at 100 µM [28]: 56.6%
OC[C@@H]1CC[C@H](n2cnc3c(O)ncnc32)O1 [MMV637306]	91.8	101	91	83.2	87.3	–	–	–	activity at 100 µM [13]: 90.3%; activity at 100 µM [14]: 80.5%; activity at 100 µM [15]: 91.2%
CC1CCc2c(N3CCC(O)CC3)c(F)cc3c(=O)c(C(=O)O)cn1c23 (centres unmarked) [MMV637659]	–	77.6	95.3	93	–	–	–	–	activity at 25 µM [8]: 88.6%; activity at 100 µM [9]: 77.8%; activity at 100 µM [10]: 65.4%; activity at 100 µM [11]: 81.1%; activity at 100 µM [12]: 86.9%

From publication PMC8815882, “Screening the pandemic response box identified benzimidazole carbamates, Olorofim and ravuconazole as promising drug candidates for the treatment of eumycetoma” (PLoS Neglected Tropical Diseases, 2022)
